Measured values as given in patent US10253002B2, “Compounds and methods of treating infections” (Neoculi Pty Ltd., priority 2013, dated 2019).
Several values for one entry are separate records, joined by “and”; a condition that tells them apart may be missing. Equal entries are not always repeated.

Experiments:
Experiment in all cases: Broth microdilution MIC, Example 7 (NCL812 and analogues)
VRE = format: cell-based, Enterococcus spp.
Method in brief: (§1)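 Turbidity read visually and then at 600 nm defined the MIC (μg/ml), comparing drug-containing wells with a growth-control well lacking antimicrobial. Testing followed the CLSI broth microdilution method, in duplicate, using two strains per organism group.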

MRSA = format: cell-based, Staphylococcus aureus
Method in brief: as §1

Escherichia coli = format: cell-based; conditions: E. coli, 24 hours
Pseudomonas aeruginosa = format: cell-based; conditions: P. aeruginosa, 24 hours
[1] = VRE 1, 24 hours, duplicate lines per compound
[2] = VRE 2, 24 hours, duplicate lines per compound
[3] = MRSA 1, 24 hours, duplicate lines per compound
[4] = MRSA 2, 24 hours, duplicate lines per compound

NC(=N/N=C/c1ccc(Cl)cc1)N(/N=C/c1ccc(Cl)cc1)C(=O)NCc1ccco1 [NCL229]
MIC (μg/ml) at 24 hours, VRE 1 (VRE; VRE 1, 24 hours): >128 µg/mL
MIC (μg/ml) at 24 hours, VRE 2 (VRE; VRE 2, 24 hours): >128 µg/mL
MIC (μg/ml) at 24 hours, MRSA 1 (MRSA; MRSA 1, 24 hours): >128 µg/mL
MIC (μg/ml) at 24 hours, MRSA 2 (MRSA; MRSA 2, 24 hours): >128 µg/mL
MIC (μg/ml) at 24 hours, E. coli (Escherichia coli): >128 µg/mL
MIC (μg/ml) at 24 hours, P. aeruginosa (Pseudomonas aeruginosa): >128 µg/mL

COc1ccc(/C=N/Nc2cc(N/N=C/c3ccc(OC)cc3)nc(N)n2)cc1 [NCL230]
MIC (μg/ml) at 24 hours, VRE 1 (VRE; VRE 1, 24 hours): >128 µg/mL
MIC (μg/ml) at 24 hours, VRE 2 (VRE; VRE 2, 24 hours): >128 µg/mL
MIC (μg/ml) at 24 hours, MRSA 1 (MRSA; MRSA 1, 24 hours): >128 µg/mL
MIC (μg/ml) at 24 hours, MRSA 2 (MRSA; MRSA 2, 24 hours): >128 µg/mL
MIC (μg/ml) at 24 hours, E. coli (Escherichia coli): >128 µg/mL
MIC (μg/ml) at 24 hours, P. aeruginosa (Pseudomonas aeruginosa): >128 µg/mL

Cc1ccc(/C=N/NC(=N)N/N=C/c2ccc(C)cc2)cc1.Cl [NCL 038]
MIC (μg/ml) at 24 hours, VRE 1 (VRE; [1]): 8 µg/mL
MIC (μg/ml) at 24 hours, VRE 2 (VRE; [2]): 8 µg/mL
MIC (μg/ml) at 24 hours, MRSA 1 (MRSA; [3]): 8 µg/mL
MIC (μg/ml) at 24 hours, MRSA 2 (MRSA; [4]): 8 µg/mL
MIC (μg/ml) at 24 hours, E. coli (Escherichia coli; duplicate lines per compound): >128 µg/mL
MIC (μg/ml) at 24 hours, P. aeruginosa (Pseudomonas aeruginosa; duplicate lines per compound): >128 µg/mL

COc1ccc(C=NNC(=N)NN=Cc2ccc(OC)c(OC)c2)cc1OC.Cl [NCL 115]
MIC (μg/ml) at 24 hours, VRE 1 (VRE; [1]): >128 µg/mL
MIC (μg/ml) at 24 hours, VRE 2 (VRE; [2]): >128 µg/mL
MIC (μg/ml) at 24 hours, MRSA 1 (MRSA; [3]): >128 µg/mL
MIC (μg/ml) at 24 hours, MRSA 2 (MRSA; [4]): >128 µg/mL
MIC (μg/ml) at 24 hours, E. coli (Escherichia coli; duplicate lines per compound): >128 µg/mL
MIC (μg/ml) at 24 hours, P. aeruginosa (Pseudomonas aeruginosa; duplicate lines per compound): >128 µg/mL

Cl.N=C(NN=Cc1ccccc1-c1ccccc1)NN=Cc1ccccc1-c1ccccc1 [NCL 116]
MIC (μg/ml) at 24 hours, VRE 1 (VRE; [1]): >128 µg/mL
MIC (μg/ml) at 24 hours, VRE 2 (VRE; [2]): >128 µg/mL
MIC (μg/ml) at 24 hours, MRSA 1 (MRSA; [3]): >128 µg/mL
MIC (μg/ml) at 24 hours, MRSA 2 (MRSA; [4]): >128 µg/mL
MIC (μg/ml) at 24 hours, E. coli (Escherichia coli; duplicate lines per compound): >128 µg/mL
MIC (μg/ml) at 24 hours, P. aeruginosa (Pseudomonas aeruginosa; duplicate lines per compound): >128 µg/mL

COc1cc(/C=N/NC(=N)N/N=C/c2ccc(O)c(OC)c2)ccc1O.Cl [NCL 117]
MIC (μg/ml) at 24 hours, VRE 1 (VRE; [1]): 64 µg/mL
MIC (μg/ml) at 24 hours, VRE 2 (VRE; [2]): 64 µg/mL
MIC (μg/ml) at 24 hours, MRSA 1 (MRSA; [3]): 64 µg/mL
MIC (μg/ml) at 24 hours, MRSA 2 (MRSA; [4]): 128 µg/mL
MIC (μg/ml) at 24 hours, E. coli (Escherichia coli; duplicate lines per compound): >128 µg/mL
MIC (μg/ml) at 24 hours, P. aeruginosa (Pseudomonas aeruginosa; duplicate lines per compound): >128 µg/mL

Cl.N=C(N/N=C/c1cc(F)ccc1F)N/N=C/c1cc(F)ccc1F [NCL 118]
MIC (μg/ml) at 24 hours, VRE 1 (VRE; [1]): >128 µg/mL
MIC (μg/ml) at 24 hours, VRE 2 (VRE; [2]): >128 µg/mL
MIC (μg/ml) at 24 hours, MRSA 1 (MRSA; [3]): >128 µg/mL
MIC (μg/ml) at 24 hours, MRSA 2 (MRSA; [4]): >128 µg/mL
MIC (μg/ml) at 24 hours, E. coli (Escherichia coli; duplicate lines per compound): >128 µg/mL
MIC (μg/ml) at 24 hours, P. aeruginosa (Pseudomonas aeruginosa; duplicate lines per compound): >128 µg/mL

CC(=O)Nc1ccc(C=NNC(=N)NN=Cc2ccc(NC(C)=O)cc2)cc1.Cl [NCL 119]
MIC (μg/ml) at 24 hours, VRE 1 (VRE; [1]): >128 µg/mL
MIC (μg/ml) at 24 hours, VRE 2 (VRE; [2]): >128 µg/mL
MIC (μg/ml) at 24 hours, MRSA 1 (MRSA; [3]): >128 µg/mL
MIC (μg/ml) at 24 hours, MRSA 2 (MRSA; [4]): >128 µg/mL
MIC (μg/ml) at 24 hours, E. coli (Escherichia coli; duplicate lines per compound): >128 µg/mL
MIC (μg/ml) at 24 hours, P. aeruginosa (Pseudomonas aeruginosa; duplicate lines per compound): >128 µg/mL

CC(C)c1ccc(/C=N/NC(=N)N/N=C/c2ccc(C(C)C)cc2)cc1.Cl [NCL 120]
MIC (μg/ml) at 24 hours, VRE 1 (VRE; [1]): 2 µg/mL
MIC (μg/ml) at 24 hours, VRE 2 (VRE; [2]): 8 µg/mL
MIC (μg/ml) at 24 hours, MRSA 1 (MRSA; [3]): 8 µg/mL
MIC (μg/ml) at 24 hours, MRSA 2 (MRSA; [4]): 4 µg/mL and 8 µg/mL
MIC (μg/ml) at 24 hours, E. coli (Escherichia coli; duplicate lines per compound): >128 µg/mL
MIC (μg/ml) at 24 hours, P. aeruginosa (Pseudomonas aeruginosa; duplicate lines per compound): >128 µg/mL

CCCc1ccc(C=NNC(=N)NN=Cc2ccc(CCC)cc2)cc1.Cl [NCL 121]
MIC (μg/ml) at 24 hours, VRE 1 (VRE; [1]): 8 µg/mL
MIC (μg/ml) at 24 hours, VRE 2 (VRE; [2]): 32 µg/mL and 64 µg/mL
MIC (μg/ml) at 24 hours, MRSA 1 (MRSA; [3]): 32 µg/mL
MIC (μg/ml) at 24 hours, MRSA 2 (MRSA; [4]): 32 µg/mL
MIC (μg/ml) at 24 hours, E. coli (Escherichia coli; duplicate lines per compound): >128 µg/mL
MIC (μg/ml) at 24 hours, P. aeruginosa (Pseudomonas aeruginosa; duplicate lines per compound): >128 µg/mL

Cl.N=C(NN=Cc1ccc(O)c([N+](=O)[O-])c1)NN=Cc1ccc(O)c([N+](=O)[O-])c1 [NCL 122]
MIC (μg/ml) at 24 hours, VRE 1 (VRE; [1]): >128 µg/mL
MIC (μg/ml) at 24 hours, VRE 2 (VRE; [2]): >128 µg/mL
MIC (μg/ml) at 24 hours, MRSA 1 (MRSA; [3]): >128 µg/mL
MIC (μg/ml) at 24 hours, MRSA 2 (MRSA; [4]): >128 µg/mL
MIC (μg/ml) at 24 hours, E. coli (Escherichia coli; duplicate lines per compound): >128 µg/mL
MIC (μg/ml) at 24 hours, P. aeruginosa (Pseudomonas aeruginosa; duplicate lines per compound): >128 µg/mL
